Source: patent EP0526502B1, “PHENOLIC AMINE DEPIGMENTING AND ANTIMELANOMA AGENTS” (The Governors of the University of Alberta, priority 1990, dated 1991)

Experiments:
[1] = Acute toxicity / lethal dose and maximum tolerable dose
Method: 3:1-85 1972. In accordance with this Protocol, ten to fifteen mice were used in each test group. They were weighed and randomized at day one after s.c. inoculation of B16 melanoma cells. From day five, the phenolic melanin precursors were administered i.p. daily for nine days. The test compounds were dissolved in normal saline, and sterilized by heating to 100°C for 2 minutes. […] They were administered i.p. with the following doses: 400 mg/Kg - 4-S-CAP; 200 to 300 mg/Kg - 4-S-CAP; and 200 to 1200 mg/Kg - N-Ac-4-S-CAP. A catalytic amount of L-dopa, 25 mg/Kg and antidecarboxylase, carbidopa, 400 mg/Kg, were also administered. Carbidopa was given one hour prior to L-dopa administration. DTIC (NSC 4538) was used as a control drug at a dose of 60 mg/Kg. Acute toxicity of 4-S-CP and 4-S-CAP was evaluated from 100 to 1600 mg/Kg.
The B16 mouse melanoma was maintained by s.c. inoculation of tumour cells into the back of C57BL7J mice (5 to 6 weeks, female). […] Briefly, excised tumours were homogenized in normal saline. The homogenized tumour cells were then passed through a sterile 80 mesh stainless steel screen, washed with normal saline, centrifuged (500 g. for 10 minutes) and resuspended in normal saline. Suspensions of viable melanoma cells at the concentration of 1 x 10⁶ per 0.1 ml were inoculated s.c. into both the right and left inguinal areas of C57BL/6J mice (female, 5 to 6 weeks old, 18 to 20 gm).

[2] = system: follicular melanocytes; experiment: Depigmentation of new hair after plucking (PTCA/eumelanin content of hair follicles); assay type: in vivo, C57BL/6J black mice; settings: for PTCA Content / Depigmentation: 300 mg/kg daily for 14 days, hair harvested day 22; for Depigmentation: 300 mg/kg
Method: Breeding pairs of C57BL/6J black mice were purchased from Jackson Laboratory, Bar Harbor, Maine. Female progeny were used in this testing when approximately 8 weeks old and weighing 17 grams.
Black hairs were plucked manually from the back of the mice to initiate new anagen growth and activate follicular melanocytes with increased tyrosinase activity. Thirty mice were randomized into 6 groups of 5 (1 control and 1 for each compound). Starting on day 1, daily for 14 days the agent was injected i.p. or was infiltrated s.c. in an area where hair follicles had been plucked; the dose was 300 mg/kg body weight.
In the same 30 mice, hair follicles were harvested on day 22 (early telogen phase) and their eumelanin content analyzed. Details of the assay, including chemical degration of melanin and high-performance liquid chromatography (HPLC) were as described in Ito et al, "Quantitative Analysis of Eumelanin and Pheomelanin in Hair and Melanosomes" J. Invest. Dermatol 80:268-272, 1983. Briefly, a 10-mg hair sample is homogenized in water at a concentration of 10 mg/ml; the 200-»l homogenate is transferred to a screw-capped test tube, mixed with 1M H₂SO₄ (800 »L) and oxidized with 3% KMnO₄. The product, pyrrole-2,3,5-tricarboxylic acid (PTCA), is analyzed by HPLC with a UVL detector; samples are measured in duplicate. The eumelanin content is expressed as PTCA (ng/mg) against the PCTA content of BALB/c albino mice as control (≦ 10 ng/mg, the background value with our method, in which 1 ng corresponds roughly to a eumelanin content of 50 ng), and the degree of depigmentation is expressed as a percentage: (PTCA content of control sampleminusPTCA content of experimental sample)/(PCTA content of control sample) x 100 [formula] .

CC(=O)NCCSc1ccc(O)cc1 [N-Ac-4-S-CAP, N-ACETYL-4-S-CYSTEAMINYLPHENOL]
lethal dose ([1]; acute toxicity, mice): 1400 mg/kg
per single dose toxicity levels ([1]; experimental tests on animals, single dose): ~1,400 mg/kg of body weight
LD50 ([1]; mouse, in vivo, ip): 1400 mg/kg
PTCA Content ([2]; Route s.c.): 30.8 ± 9.1 ng/mg
Depigmentation ([2]; Route s.c.): 97.2%
PTCA Content ([2]; Route: i.p.): 26.0 ± 10.3 ng/mg
Depigmentation ([2]; Route: i.p.): 97.6%
visible pigmentation of new hair ([2]; i.p. or s.c. route, result in words): almost pure white as in albino mice
